Results from patent US11406649B2, “Treatment of upper aerodigestive tract disorders and cough” (IVIEW THERAPEUTICS, INC., priority 2018, dated 2022).
Converted amounts (≈) assume the structure as drawn. “Also recorded” adds a separate entry of the source.

Tests used:
[1] = test system: respiratory syncytial virus (RSV) induced cough; experiment: Mouse cough model of respiratory syncytial virus infection; type: in vivo; details: 1 mg perioral per mouse, 1 hr before count
cloned hTRPM8 channel = cloned hTRPM8 channel (Homo sapiens (Human), UniProt Q7Z2W7); experiment: TRPM8 agonist activity, Fluo-8 calcium FLIPR assay (ChanTest); type: cell-based
cloned hTRPM8 channel, sequence (Q7Z2W7 whole entry): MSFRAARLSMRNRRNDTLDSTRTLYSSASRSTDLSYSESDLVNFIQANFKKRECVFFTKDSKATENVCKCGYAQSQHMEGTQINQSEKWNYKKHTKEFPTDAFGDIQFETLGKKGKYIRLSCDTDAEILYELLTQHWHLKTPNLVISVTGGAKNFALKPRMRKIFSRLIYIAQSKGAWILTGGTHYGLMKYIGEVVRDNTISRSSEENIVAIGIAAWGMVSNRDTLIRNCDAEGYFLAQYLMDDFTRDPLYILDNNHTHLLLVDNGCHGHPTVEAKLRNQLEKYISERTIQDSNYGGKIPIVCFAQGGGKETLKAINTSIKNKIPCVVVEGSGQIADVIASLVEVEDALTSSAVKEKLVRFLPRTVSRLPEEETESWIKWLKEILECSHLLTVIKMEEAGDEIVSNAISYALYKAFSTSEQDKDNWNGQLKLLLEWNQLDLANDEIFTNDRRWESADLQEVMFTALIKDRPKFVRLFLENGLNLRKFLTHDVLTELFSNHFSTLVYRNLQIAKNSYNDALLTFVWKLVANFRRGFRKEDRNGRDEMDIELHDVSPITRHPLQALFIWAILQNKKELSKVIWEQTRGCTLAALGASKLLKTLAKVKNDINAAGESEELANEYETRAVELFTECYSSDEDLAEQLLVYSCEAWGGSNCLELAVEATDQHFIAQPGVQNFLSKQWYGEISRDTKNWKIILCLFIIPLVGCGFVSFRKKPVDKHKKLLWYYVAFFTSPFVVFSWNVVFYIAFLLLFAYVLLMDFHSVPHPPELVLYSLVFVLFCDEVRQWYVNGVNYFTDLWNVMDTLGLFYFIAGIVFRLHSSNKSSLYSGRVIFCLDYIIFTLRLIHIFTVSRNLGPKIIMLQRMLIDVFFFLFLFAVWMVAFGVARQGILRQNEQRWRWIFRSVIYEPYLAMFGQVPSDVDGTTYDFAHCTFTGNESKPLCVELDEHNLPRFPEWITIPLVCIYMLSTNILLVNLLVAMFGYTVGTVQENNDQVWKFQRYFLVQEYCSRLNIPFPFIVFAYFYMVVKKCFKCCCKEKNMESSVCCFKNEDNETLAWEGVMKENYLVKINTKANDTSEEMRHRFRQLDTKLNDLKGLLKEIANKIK
Method: In the first set of data, the potency and in vitro effects of test compounds were evaluated on cloned hTRPM8 channel (encoded by the human TRPM8 gene, expressed in CHO cells) using a Fluo-8 calcium kit and a Fluorescence Imaging Plate Reader (FLIPR^TETRA™) instrument. […] Test solutions were in a HEPES-buffered saline, in 384-well plates, and placed into the FLIPR instrument (Molecular Devices Corporation, Union City, Calif., USA). […] The test cells were Chinese Hamster Ovary (CHO) cells stably transfected with human TRPM8 cDNAs. Concentration-response data were analyzed via FLIPR Control software) and fitted to a Hill equation for the EC50.

TRPM8 = TRPM8 (Mus musculus (Mouse), UniProt Q8R4D5); experiment: TRPM8 Fura-2 calcium assay in transfected CHO cells (Andersson et al.); type: cell-based; details: FIG. 4
TRPM8, sequence (Q8R4D5 whole entry): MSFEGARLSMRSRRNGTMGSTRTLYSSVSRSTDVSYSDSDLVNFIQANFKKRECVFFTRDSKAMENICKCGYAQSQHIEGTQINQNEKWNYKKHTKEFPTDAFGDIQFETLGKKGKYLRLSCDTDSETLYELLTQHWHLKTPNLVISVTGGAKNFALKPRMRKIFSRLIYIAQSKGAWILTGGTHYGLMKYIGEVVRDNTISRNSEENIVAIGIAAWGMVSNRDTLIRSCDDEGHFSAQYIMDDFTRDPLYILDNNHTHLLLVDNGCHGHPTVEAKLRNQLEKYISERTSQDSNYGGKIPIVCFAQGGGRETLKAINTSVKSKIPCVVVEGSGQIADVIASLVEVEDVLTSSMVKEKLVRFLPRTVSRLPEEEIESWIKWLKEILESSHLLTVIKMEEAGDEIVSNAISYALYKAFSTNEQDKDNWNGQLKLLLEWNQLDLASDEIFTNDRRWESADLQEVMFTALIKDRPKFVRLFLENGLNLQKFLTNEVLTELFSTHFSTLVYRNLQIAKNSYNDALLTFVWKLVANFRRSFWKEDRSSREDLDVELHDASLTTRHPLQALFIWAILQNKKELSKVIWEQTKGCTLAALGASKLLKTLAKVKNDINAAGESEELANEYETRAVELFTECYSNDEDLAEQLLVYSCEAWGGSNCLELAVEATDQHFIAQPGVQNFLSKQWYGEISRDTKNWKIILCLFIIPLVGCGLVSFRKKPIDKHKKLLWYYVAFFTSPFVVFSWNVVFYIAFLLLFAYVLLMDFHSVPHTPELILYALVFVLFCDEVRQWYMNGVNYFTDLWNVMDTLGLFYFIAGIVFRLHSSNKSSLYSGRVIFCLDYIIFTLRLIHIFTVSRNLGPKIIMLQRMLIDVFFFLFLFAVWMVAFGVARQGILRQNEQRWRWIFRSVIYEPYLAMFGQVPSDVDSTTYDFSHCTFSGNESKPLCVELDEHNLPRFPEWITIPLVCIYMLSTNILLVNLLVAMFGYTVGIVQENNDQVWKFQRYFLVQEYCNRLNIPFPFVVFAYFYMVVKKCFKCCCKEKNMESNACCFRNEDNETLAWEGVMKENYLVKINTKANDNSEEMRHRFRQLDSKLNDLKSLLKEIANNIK
Method: FIG. 4. is a graph of fluorescence response (Δ ratio 340/380) in TRPM8 transfected cells as a function of the logarithm of the concentration of the test compound, expressed in μM, for DIPA-1-7 (black circle), 3,4-7 (open squares), or 3,4-6 (open triangles). The assays were conducted by Andersson et al. of King's College, London, UK, using his methods described in “Modulation of the cold-activated channel TRPM8 by lysophospholipids and polyunsaturated fatty acids. Journal Neuroscience 27 (12): 3347-3355, 2007.
In a second set, tests were made on “mixed” isopropyl-sec-butylphosphorylhexane and heptane analogs described as 3,4-6 and 3,4-7 in Table 2, and results shown in FIG. 4. […] Emission intensity from cells was measured for 90 sec, at every 4 or 5 sec, using excitation wavelengths of 340 and 380 nm and an emission of 520 nm. Fluorescence emission intensity ratios at 340 nm/380 nm excitation (R, in individual cells) were recorded with a FlexStation and the ImageMaster suite of software (PTI, South Brunswick, N.J.). Samples were tested in triplicate at each concentration and the averaged values analyzed by non-linear regression using an a sigmoidal function fit of the points to obtain an estimated EC50 (median effective concentration) (GraphPad Prism software, La Jolla, Calif.). […]

[2] = Water solubility of 1-dialkylphosphorylalkanes; type: physicochemical; details: water
Text: The DIPA compounds are colorless liquids with a density less than water. These structures differ from those described by Rowsell and Spring U.S. Pat. No. 4,070,496 because '496 structures have their “head” (phosphine oxide group) covered by larger, more lipophilic groups. […] The applicant synthesized these analogs (which are achiral, by contrast to the structures of '496 which are >95% chiral). […] This increased water-solublility is striking (Table 3). […] The DIPA analogs are now mobile in the extracellular fluids and permeate between cells to access nerve endings in the stratum basale.

[3] = Flux through excised hairless mouse skin in vitro; type: in vitro ADME
Method: Test chemicals dissolved in a gel were placed in an incubation well for 8 hr and the permeated amount of the chemical measured by a high pressure liquid chromatograph equipped with a refractive detector. These tests were conducted by Prof Choi of Chosun University, Korea. The flux of DIPA-1-7 was ˜5× greater than DIPA-1-9.
To further study the skin permeation of DIPA compounds, tests were conducted on the flux of DIPA-1-7 and DIPA-1-9 through excised hairless mouse skin in vitro. These tests were conducted by Prof Choi, Dean of the School of Pharmacy of Chosun University, Korea, and the results shown in (FIG. 5).

anesthetized rat = experiment: In vivo transdermal activity: shaking after topical application to abdominal skin of anesthetized rat; details: pure compound 20 μL on abdominal skin, counted 40 min
Method: Shaking frequency was counted for 40 min after topical application.
The importance of water solubility for permeation was further illustrated in studies on the abdominal skin of anesthetized rat. […] The pharmacokinetic determinants of bioactivity are precise. Thus, for the avoidance of cold discomfort, DIPA-1-9 has to reach the receptors in the stratum basale but not “over-stimulate”.

Oral Cavity and Pharynx = experiment: Sensory qualities of compounds in syrup applied to base of tongue of volunteers; type: in vivo, human
Method: The DIPA compounds was 5 mg/mL in cherry-flavored syrup in a volume of 0.8 mL per dose. The sensory effect were recorded every 5 min for 1 hr.
Tests were on four volunteers, with 3 to 5 trials per substance. Compounds were prepared in cherry-flavored syrup at 5 mg/mL and administered ˜0.8 mL per dose with a 2 mL plastic vial to the base of the tongue. The subjects asked to rate the sensations for cooling intensity, cold discomfort and adverse taste.
The concentration of the DIPA compounds was 5 mg/mL in cherry-flavored syrup administered in a volume of 0.8 mL per dose. The sensory effect were recorded every 5 min for 1 hr.

[4] = test system: acid-induced swallowing movements; experiment: Suppression of acid-induced swallowing movements in the anesthetized rat; type: in vivo
Text: A principal endogenous irritant in the linings of the upper aerodigestive tract is hydrochloric acid. Acid stimulations of the mucosa of the pharynx will elicit reflex swallowing. […] In a rat animal model, solutions of organic acids such as acetic acid and citric acid were effective in eliciting swallowing [Kajii et al., Sour taste stimulation facilitates reflex swallowing from the pharynx and larynx in the rat Physiology & Behavior 77: 321-325, 2002]. These methods for measuring sensory responses to acid can be adapted for screening the activity of DIPA-1-9. An agent that stimulates swallowing or an agent that suppress the acid challenge may then have utility in relieving dysphagia or the discomfort of heartburn, respectively. Preliminary experiments were conducted at the Pavlov Institute of Physiology, St. Petersburg, Russia, using adult male Wistar rats (see Table 11) and Wei (US 0.2015/0111852 A1). Swallowing movements was identified as the electromyogram activity and could also be visualized as laryngeal movement. Work is in progress to get more results for DIPA-1-9.

oropharynx and esophagus = experiment: Sensory events and cold discomfort of compounds on throat, chest and body
Text: The terms “icy cold” is used to describe this adverse event in the throat.
Most likely, the compound rapidly distributed and activated cold sensations in the eosophageal lining.

[5] = test system: dorsal surface of the tongue; details: average of 6 subjects; cited from earlier work

COc1ccc2c3c1O[C@H]1[C@@H](O)C=C[C@H]4[C@@H](C2)N(C)CC[C@@]341 [Codeine, reference compound]
cough frequency [1]: significantly inhibited cough frequency

CCCCCCCP(=O)(C(C)C)C(C)C [DIPA-1-7, 1-Di(isopropyl)-phosphinoyl-heptane]
Relative Potency to L-menthol (cloned hTRPM8 channel; L-menthol = 1.0): 5.4
TRPM8 Relative Potency (cloned hTRPM8 channel; Table 8, DIPA-1-7 = 1): 1
potency for activation of TRPM8 relative to 3,4-6 (TRPM8): ~10 ×
potency for activation of TRPM8 relative to 3,4-7 (TRPM8): ~5 ×
solubility [2]: > 300 mg/mL
penetration of excised skin [3]: very active in penetrating the excised skin
flux relative to DIPA-1-9 ([3]; gel, 8 hr): ~5 ×
decrease in rate of permeation by added standard enhancers ([3]; propylene glycol-oleyl alcohol (50:50) or Lauroglycol 90 added to gel): ~50%
shaking after topical application (anesthetized rat): vigorous shaking; also recorded: robust shaking
sensory effects (Oral Cavity and Pharynx; 5 mg/mL in cherry-flavored syrup): cold, icy cold, and adverse tastes; also recorded: icy pain in the back of the throat
Sensation (Oral Cavity and Pharynx; 5 mg/mL in cherry-flavored syrup, ~0.8 mL): painful cold
duration of unpleasant tastes (Oral Cavity and Pharynx; metallic, organic solvent-like, harsh): at least 15 min
EC50 ([4]; anesthetized rat): 820 ± 80 µg/mL (≈ 3.53 mM)
Relative Potency ([4]; suppression of acid-induced swallowing): 0.11
icy cold / pain in throat (oropharynx and esophagus; DIPA-1-9 up to 12 mg per unit): icy cold
cold in the chest / behind sternum (oropharynx and esophagus; in vivo): spreads behind the sternum, into the chest
taste (oropharynx and esophagus; oral cavity / tongue): this taste is present

CC(C)[C@@H]1CC[C@@H](C)C[C@H]1O [Menthol, reference compound]
Threshold, μg (cooling on tongue) [5]: 0.25 µg
sensory side-effects (oropharynx and esophagus; menthol 5 mg in an orally dissolving tablet): chest discomfort
